Reference: US20240083857A1, “2-Methyl-Quinazolines” (Bayer Pharma Aktiengesellschaft, priority 2017, published 2024)

Key:
[1] = target: K-Ras^G12C : hSOS1 interaction (Homo sapiens, UniProt Q07889); assay: Biochemical assay 1: K-Ras^G12C interaction assay with hSOS1 (HTRF); type: binding; details: read-out: Assay 1 (KRAS-SOS Interaction) activity expressed as IC50
[2] = target: human SOS1 (nucleotide exchange of K-Ras^G12C) (Homo sapiens, UniProt Q07889); assay: Biochemical assay 2: K-Ras^G12C activation assay by hSOS1 at high GTP concentration (HTRF); details: high GTP; read-out: Assay 2 (KRAS-Activation by SOS high GTP) activity expressed as IC50

COc1cc2nc(C)nc(NC(C)c3ccc(-c4cnn(CC(N)=O)c4)s3)c2cc1OC (stereo not drawn) [Example 249, 2-[4-(5-{1-[(6,7-dimethoxy-2-methylquinazolin-4-yl)amino]ethyl}thiophen-2-yl)-1H-pyrazol-1-yl]acetamide]
IC50 [1]: 6100 nM | IC50 [2]: 5310 nM

CNCc1ccccc1-c1ccc(C(C)Nc2nc(C)nc3cc(OC)c(OC)cc23)s1 (stereo not drawn) [Example 250, 6,7-dimethoxy-2-methyl-N-[1-(5-{2-[(methylamino)methyl]phenyl}thiophen-2-yl)ethyl]quinazolin-4-amine]
IC50 [1]: 50 nM | IC50 [2]: 58.1 nM

COc1cc2nc(C)nc(NC(C)c3csc(-c4cnn(CCO)c4)c3)c2cc1OC (stereo not drawn) [Example 251, 2-[4-(4-{1-[(6,7-dimethoxy-2-methylquinazolin-4-yl)amino]ethyl}thiophen-2-yl)-1H-pyrazol-1-yl]ethanol]
IC50 [1]: 4570 nM | IC50 [2]: 5840 nM

COc1cc2nc(C)nc(NC(C)c3ccc(-c4ccccc4CN)s3)c2cc1OC (stereo not drawn) [Example 252, N-[1-{5-[2-(aminomethyl)phenyl]thiophen-2-yl}ethyl]-6,7-dimethoxy-2-methylquinazolin-4-amine]
IC50 [1]: 80.2 nM | IC50 [2]: 74.1 nM

COc1cc2nc(C)nc(NC(C)c3csc(-c4cnc5n4CCC5)c3)c2cc1OC (stereo not drawn) [Example 253, N-{1-[5-(6,7-dihydro-5H-pyrrolo[1,2-a]imidazol-3-yl)thiophen-3-yl]ethyl}-6,7-dimethoxy-2-methylquinazolin-4-amine]
IC50 [1]: 1310 nM | IC50 [2]: 2330 nM

COc1cc2nc(C)nc(NC(C)c3csc(-c4cnn(CCN5CCCC5)c4)c3)c2cc1OC (stereo not drawn) [Example 254, 6,7-dimethoxy-2-methyl-N-[1-(5-{1-[2-(pyrrolidin-1-yl)ethyl]-1H-pyrazol-4-yl}thiophen-3-yl)ethyl]quinazolin-4-amine]
IC50 [1]: 814 nM | IC50 [2]: 1590 nM

COc1cc2nc(C)nc(NC(C)c3csc(-c4ccc(F)cc4CN)c3)c2cc1OC (stereo not drawn) [Example 255, N-[1-{5-[2-(aminomethyl)-4-fluorophenyl]thiophen-3-yl}ethyl]-6,7-dimethoxy-2-methylquinazolin-4-amine]
IC50 [1]: 248 nM | IC50 [2]: 317 nM

COc1cc2nc(C)nc(N[C@H](C)c3cccc(-c4cnn(CCO)c4)c3)c2cc1OC [Example 256, 2-[4-(3-{(1R)-1-[(6,7-dimethoxy-2-methylquinazolin-4-yl)amino]ethyl}phenyl)-1H-pyrazol-1-yl]ethanol]
IC50 [1]: 473 nM | IC50 [2]: 828 nM

COc1cc2nc(C)nc(N[C@H](C)c3cccc(-c4cnn(CCN5CCCC5)c4)c3)c2cc1OC [Example 257, 6,7-dimethoxy-2-methyl-N-[(1R)-1-(3-{1-[2-(pyrrolidin-1-yl)ethyl]-1H-pyrazol-4-yl}phenyl)ethyl]quinazolin-4-amine]
IC50 [1]: 363 nM | IC50 [2]: 754 nM
